This assay addresses T1, human TRPV4 (Homo sapiens, UniProt Q9HBA0).
T1 construct: expressed in transfected cells
The experiment in a line: Fluorometric cell-based Ca2+ flux assay, HEK-293 cells stably overexpressing human TRPV4. The settings on record: HEK-293 stably overexpressing human TRPV4; agonist GSK1016790A 30 nM. As for the experimental part:
Fluorometric cell-based Ca^2+ flux assays were performed to assess TRPV4 antagonist activity and determine potency (IC50 values) in human embryonic kidney-293 cells (HEK-293) that stably overexpress human TRPV4. The assays were performed according to methods described in: Deering-Rice, C. E., Johansen, M. E., Roberts, J. K., Thomas, K. C., Romero, E. G., Lee, J., Yost, G. S., Veranth, J. M., and Reilly, C. A. (2012), Mol. Pharmacol. 81(3), 411-419; Shapiro, D., Deering-Rice, C. E., Romero, E. G., Hughen, R. W., Light, A. R., Veranth, J. M., and Reilly, C. A. (2013), Chem Res. Toxicol., 26, 750-758; and Deering-Rice, C. E., Mitchell, V. K., Romero, E. G., Abdel Aziz, M. H., and Reilly, C. A. (2014), Pharmacol. Res. & Perspectives. 2(5), 1-10.
The HEK-293 cells stably overexpressing human TRPV4 were grown to confluence in 2% (w/v) gelatin-coated 96-well plates in DMEM:F12 media supplemented with 5% fetal bovine serum, 1× penicillin/streptomycin (Invitrogen) and Geneticin (300 μg/mL).
The HEK-293 cells were prepared for assay by replacing the growth media with a 1:1 solution of LHC-9 and Fluo 4-Direct (Invitrogen) reagent containing Fluo 4-AM, pluronic F-127, probenecid, and a proprietary quencher dye. The cells were then incubated at 37° C. for 1 h in a cell culture incubator. The cells were subsequently washed by replacing the loading solution with LHC-9 containing 1 mM water-soluble probenecid (Invitrogen), 750 μM Trypan Red (ATT Bioquest), and a test compound (at various concentrations). The cells were incubated for an additional 30 minutes at 37° C. to allow for Fluo 4-AM cleavage and activation, as well as equilibration to both the test compounds and Fluo 4.
An agonist treatment solution (90 nM GSK1016790A, a potent activator of TRPV4) was prepared in LHC9 at 3× concentration and 25 μL was added to 50 μL of media on the cells in 96 well plates, providing a final concentration of 30 nM. Changes in cellular fluorescence were monitored with a BMG Labtech NOVOStar fluorescence plate reader for 1 minute at 37° C. Data were quantified as the maximum rate of change in fluorescence intensity (max ΔF/s), corrected for media only treatment (negative control), and represented as the percentage of response relative to the no antagonist control. A minimum of three replicates were used for each treatment condition, with a minimum of 8 concentrations to derive the IC50 values reported for each antagonist. The IC50 values for each antagonist, which are shown in Table 4 below, were calculated according to methods described in the assays were performed according to methods described in: Deering-Rice, C. E., Johansen, M. E., Roberts, J. K., Thomas, K. C., Romero, E. G., Lee, J., Yost, G. S., Veranth, J. M., and Reilly, C. A. (2012), Mol. Pharmacol. 81(3), 411-419; Shapiro, D., Deering-Rice, C. E., Romero, E. G., Hughen, R. W., Light, A. R., Veranth, J. M., and Reilly, C. A. (2013), Chem Res. Toxicol., 26, 750-758; and Deering-Rice, C. E., Mitchell, V. K., Romero, E. G., Abdel Aziz, M. H., and Reilly, C. A. (2014), Pharmacol. Res. & Perspectives. 2(5), 1-10.
On the technique in general: Calcium flux is commonly read through the fluorescence of an indicator in the cells.

Counter-ions that a name gives are not always drawn.

One may read the IC50 as the concentration that inhibits the measured activity by half. Read a low IC50 as greater potency in that assay.

T1 sequence (Q9HBA0 whole entry): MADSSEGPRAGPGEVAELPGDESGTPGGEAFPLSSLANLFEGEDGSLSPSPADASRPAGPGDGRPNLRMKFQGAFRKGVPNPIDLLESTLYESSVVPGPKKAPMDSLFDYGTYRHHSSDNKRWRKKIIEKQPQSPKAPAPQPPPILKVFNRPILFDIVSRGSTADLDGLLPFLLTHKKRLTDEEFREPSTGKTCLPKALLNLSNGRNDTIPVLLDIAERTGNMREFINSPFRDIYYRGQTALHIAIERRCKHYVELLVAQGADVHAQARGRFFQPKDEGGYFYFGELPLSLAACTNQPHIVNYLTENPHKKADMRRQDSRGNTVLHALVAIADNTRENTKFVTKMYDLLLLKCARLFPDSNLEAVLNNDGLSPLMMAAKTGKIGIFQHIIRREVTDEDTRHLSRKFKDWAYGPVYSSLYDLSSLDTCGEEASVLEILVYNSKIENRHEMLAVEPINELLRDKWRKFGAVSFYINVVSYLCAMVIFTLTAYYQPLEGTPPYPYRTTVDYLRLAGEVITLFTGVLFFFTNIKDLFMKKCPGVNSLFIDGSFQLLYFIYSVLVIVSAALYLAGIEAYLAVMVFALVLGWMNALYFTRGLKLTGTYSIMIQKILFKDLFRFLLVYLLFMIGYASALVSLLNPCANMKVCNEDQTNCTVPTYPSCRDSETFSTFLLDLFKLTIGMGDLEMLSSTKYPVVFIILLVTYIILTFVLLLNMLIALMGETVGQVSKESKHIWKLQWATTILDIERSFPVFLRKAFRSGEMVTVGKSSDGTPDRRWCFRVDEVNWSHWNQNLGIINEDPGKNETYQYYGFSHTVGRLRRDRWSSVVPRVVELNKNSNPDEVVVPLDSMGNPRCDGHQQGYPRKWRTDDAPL

In turn, `CC(=O)NC1(COc2ccc(C#N)c(F)c2)CN(S(=O)(=O)c2ccc(Cl)cc2Cl)C1` [Compound 53, N-(3-((4-Cyano-3-fluorophenoxy)methyl)-1-((2,4-dichlorophenyl)sulfonyl)azetidin-3-yl)acetamide] displayed a half-inhibitory concentration (IC50) of 88 nM.
Compound `CN(C)C1(COc2ccc(C#N)c(F)c2)CN(S(=O)(=O)c2ccc(Cl)cc2Cl)C1` [Compound 54, 4-((1-((2,4-Dichlorophenyl)sulfonyl)-3-(dimethylamino)azetidin-3-yl)methoxy)-2-fluorobenzonitrile] returned an IC50 of 1240 nM.
`N#Cc1ccc(OCC2(NC(=O)CN)CN(S(=O)(=O)c3ccc(Cl)cc3Cl)C2)cc1F` [Compound 55, 2-Amino-N-(3-((4-cyano-3-fluorophenoxy)methyl)-1-((2,4-dichlorophenyl)sulfonyl)azetidin-3-yl)acetamide]: the IC50 was 23 nM.
As for `N#Cc1ccc(OCC2(NC(=O)CO)CN(S(=O)(=O)c3ccc(Cl)cc3Cl)C2)cc1F` [Compound 56, N-(3-((4-Cyano-3-fluorophenoxy)methyl)-1-((2,4-dichlorophenyl)sulfonyl)azetidin-3-yl)-2-hydroxyacetamide], the figure is 100 nM; as for `N#Cc1ccc(OCC2(NS(=O)(=O)CCN)CN(S(=O)(=O)c3ccc(Cl)cc3Cl)C2)cc1F` [Compound 57, 2-Amino-N-(3-((4-cyano-3-fluorophenoxy)methyl)-1-((2,4-dichlorophenyl)sulfonyl)azetidin-3-yl)ethane-1-sulfonamide hydrochloride], 53 nM; as for `N#Cc1ccc(OCC2(CO)CN(S(=O)(=O)c3ccccc3Cl)C2)cc1F` [Compound 58, 4-((1-((2-Chlorophenyl)sulfonyl)-3-(hydroxymethyl)azetidin-3-yl)methoxy)-2-fluorobenzonitrile], 413 nM.
As for `N#Cc1ccc(OCC2(CO)CN(S(=O)(=O)c3ccc(C(F)(F)F)cc3Cl)C2)cc1F` [Compound 59, 4-((1-((2-Chloro-4-(trifluoromethyl)phenyl)sulfonyl)-3-(hydroxymethyl)azetidin-3-yl)methoxy)-2-fluorobenzonitrile], the figure is 481 nM; as for `N#Cc1ccc(S(=O)(=O)N2CC(CO)(COc3ccc(C#N)c(F)c3)C2)c(Cl)c1` [Compound 60, 4-((1-((2-Chloro-4-cyanophenyl)sulfonyl)-3-(hydroxymethyl)azetidin-3-yl)methoxy)-2-fluorobenzonitrile], 54 nM.
For `Cc1ccc(S(=O)(=O)N2CC(CO)(COc3ccc(C#N)c(F)c3)C2)c(C)c1` [Compound 62, 4-((1-((2,4-Dimethylphenyl)sulfonyl)-3-(hydroxymethyl)azetidin-3-yl)methoxy)-2-fluorobenzonitrile] the value was 472 nM.
For the compound `COC(=O)c1ccc(S(=O)(=O)N2CC(CO)(COc3ccc(C#N)c(F)c3)C2)cc1` [Compound 63, Methyl 4-((3-((4-cyano-3-fluorophenoxy)methyl)-3-(hydroxymethyl)azetidin-1-yl)sulfonyl)benzoate], the IC50 is 5000 nM.
For the compound `N#Cc1ccc(OCC2(CO)CN(S(=O)(=O)c3ccc(C(F)(F)F)nc3)C2)cc1F` [Compound 64, 2-Fluoro-4-((3-(hydroxymethyl)-1-((6-(trifluoromethyl)pyridin-3-yl)sulfonyl)azetidin-3-yl)methoxy)benzonitrile], the IC50 amounted to 5000 nM.
As for `Cc1nc(C)c(S(=O)(=O)N2CC(CO)(COc3ccc(C#N)c(F)c3)C2)s1` [Compound 65, 4-((1-((2,4-Dimethylthiazol-5-yl)sulfonyl)-3-(hydroxymethyl)azetidin-3-yl)methoxy)-2-fluorobenzonitrile], the figure is 5000 nM; as for `Cc1nn(C)cc1S(=O)(=O)N1CC(CO)(COc2ccc(C#N)c(F)c2)C1` [Compound 66, 4-((1-((1,3-Dimethyl-1H-pyrazol-4-yl)sulfonyl)-3-(hydroxymethyl)azetidin-3-yl)methoxy)-2-fluorobenzonitrile], 10000 nM; as for `N#Cc1ccc(OCC2(CO)CN(S(=O)(=O)c3ccc(F)c(Cl)c3)C2)cc1F` [Compound 67, 4-((1-((3-chloro-4-fluorophenyl)sulfonyl)-3-(hydroxymethyl)azetidin-3-yl)methoxy)-2-fluorobenzonitrile], 5000 nM.
`N#Cc1ccc(OCC2(CO)CN(S(=O)(=O)c3cc(Cl)cc(Cl)c3)C2)cc1F` [Compound 68, 4-((1-((3,5-Dichlorophenyl)sulfonyl)-3-(hydroxymethyl)azetidin-3-yl)methoxy)-2-fluorobenzonitrile]: the IC50 came to 5000 nM.
For `CS(=O)(=O)c1ccc(S(=O)(=O)N2CC(CO)(COc3ccc(C#N)c(F)c3)C2)cc1` [Compound 69, 2-Fluoro-4-((3-(hydroxymethyl)-1-((4-(methylsulfonyl)phenyl)sulfonyl)azetidin-3-yl)methoxy)benzonitrile] the value was 5000 nM; for `N#Cc1ccc(OCC2(CO)CN(S(=O)(=O)c3cccc(C(F)(F)F)c3)C2)cc1F` [Compound 70, 2-Fluoro-4-((3-(hydroxymethyl)-1-((3-(trifluoromethyl)phenyl)sulfonyl)azetidin-3-yl)methoxy)benzonitrile], 5000 nM; for `N#Cc1ccc(OCC2(CO)CN(S(=O)(=O)c3ccccc3)C2)cc1F` [Compound 72, 2-Fluoro-4-((3-(hydroxymethyl)-1-(phenylsulfonyl)azetidin-3-yl)methoxy)benzonitrile], 5000 nM.
Take `Cc1ccc(S(=O)(=O)N2CC(CO)(COc3ccc(C#N)c(F)c3)C2)cc1` [Compound 73, 2-Fluoro-4-((3-(hydroxymethyl)-1-tosylazetidin-3-yl)methoxy)benzonitrile]: the 50% inhibitory concentration (IC50) was 3000 nM.
On to `Cc1cc(Cl)ccc1S(=O)(=O)N1CC(CO)(COc2ccc(C#N)c(F)c2)C1` [Compound 74, 4-((1-((4-Chloro-2-methylphenyl)sulfonyl)-3-(hydroxymethyl)azetidin-3-yl)methoxy)-2-fluorobenzonitrile], for which the half-inhibitory concentration (IC50) was 520 nM.
As for `N#Cc1ccc(OCC2(CO)CN(S(=O)(=O)c3c(Cl)cccc3Cl)C2)cc1F` [Compound 75, 4-((1-((2,6-Dichlorophenyl)sulfonyl)-3-(hydroxymethyl)azetidin-3-yl)methoxy)-2-fluorobenzonitrile], the figure is above 1300 nM; as for `Cc1ccccc1S(=O)(=O)N1CC(CO)(COc2ccc(C#N)c(F)c2)C1` [Compound 76, 2-Fluoro-4-((3-(hydroxymethyl)-1-(o-tolylsulfonyl)azetidin-3-yl)methoxy)benzonitrile], above 2500 nM; as for `Cc1cc(F)ccc1S(=O)(=O)N1CC(CO)(COc2ccc(C#N)c(F)c2)C1` [Compound 77, 2-Fluoro-4-((1-((4-fluoro-2-methylphenyl)sulfonyl)-3-(hydroxymethyl)azetidin-3-yl)methoxy)benzonitrile], above 2500 nM.
For `N#Cc1ccc(OCC2(CO)CN(S(=O)(=O)c3ccc(Cl)cc3F)C2)cc1F` [Compound 78, 4-((1-((4-Chloro-2-fluorophenyl)sulfonyl)-3-(hydroxymethyl)azetidin-3-yl)methoxy)-2-fluorobenzonitrile] the value was 100 to 500 nM; for `Cc1cc(C#N)ccc1S(=O)(=O)N1CC(CO)(COc2ccc(C#N)c(F)c2)C1` [Compound 79, 4-((1-((4-Cyano-2-methylphenyl)sulfonyl)-3-(hydroxymethyl)azetidin-3-yl)methoxy)-2-fluorobenzonitrile], above 1300 nM.
Regarding `COC(=O)c1ccc(S(=O)(=O)N2CC(CO)(COc3ccc(C#N)c(F)c3)C2)c(Cl)c1` [Compound 80, Methyl 3-chloro-4-((3-((4-cyano-3-fluorophenoxy)methyl)-3-(hydroxymethyl)azetidin-1-yl)sulfonyl)benzoate], the IC50 is above 850 nM.

The values above are taken from patent US20230026696A1, “TRPV4 RECEPTOR LIGANDS” (UNIVERSITY OF UTAH RESEARCH FOUNDATION, priority 2019, published 2023).
